Source: US12377069B2, “Compounds, compositions, methods of using, and methods for preparing compounds” (UNIVERSITY OF LOUISVILLE RESEARCH FOUNDATION, INC., priority 2018, dated 2025)

How the values were obtained:
Snail transgenic mice = experiment: Scleroderma model in Snail transgenic mice; type: in vivo, mouse
Description: UAS03 attenuates Scleroderma associated vascular permeability in Snail transgenic mice. Calorimetric quantification of Evan's blue dye extracted from back skin using UV spectrophotometer. […] Animals treated with UAS03 show more than 3-fold reduction in the dye leakage (FIG. 24).
Expression for fibrosis associated genes in the back skin of the Snail transgenic mice. The mRNA levels of the Collagen 1 were measured in back skin using RT-qPCR. […] The expression in UAS03 treated group, in both males and females, were reduced. The levels were separately assessed in males and females in vehicle and drug treated animals (FIG. 25).

C57BL/6N mice = experiment: Chronic ALD mouse model; type: in vivo; settings: 20 mg/kg orally every other day, 4 weeks
Description: FIG. 18: UAS03 mitigates chronic ALD. (A) C57BL/6 mice (10 wk old age) were used in chronic ALD models and analyzed after 4 weeks as described. Pair fed (n=5/group) and EtOH fed (n=10/group) mice were treated with Veh (0.25% CMC) and UAS03 (20 mg/kg) alternate day for 4 weeks. (B) Gross images of colons (C) colon lengths (D) In vivo permeability using FITC-Dextran was measured. (E) Serum ALT, AST, endotoxin, IL-6, TNF-α were measured using ELISA methods. (F) H&E sections (20×) of liver are shown. Scale bar is 100 μm. Fat droplets (white) are visible in EtOH group. (G) The levels of triglycerides (TGs), IL-6, TNF-α and myeloperoxidase (MPO) were measured in liver tissues. (H) Immunoblot of Ocln expression in ileum tissues (n=3) from mice fed with EtOH treated with Veh or UAS03. Error bars, ±SEM. Statistics were performed using 2way ANOVA multiple comparisons. * p<0.05, ** p<0.01, *** p<0.001.
Male C57BL/6N (10 week age old) were purchased from Jackson Laboratory and were acclimatized with pair fed liquid diet (Lieber DeCarli) for 1 week. After acclimatization, animals were fed with pair fed (n=5 mice/group) and alcohol diet (n=10 mice/group). Briefly, mice were fed with diet containing 17% of energy as protein, 40% as corn oil, 7.5% as carbohydrate, and 35.5% as either alcohol (5% v/w, alcohol-fed, AF) or isocaloric maltose dextrin (pair-fed, PF). Before mice went on to 5% alcohol diet, alcohol concentration was ramped from 1.6% (3 days) to 3.6% (3 days) and finally 5% for next 4 weeks. UAS03 group animals received UAS03 orally (20 mg/kg/day) on every other day after start of alcohol diet (FIG. 18A). We used 0.25% sodium carboxymethyl cellulose (CMC) as vehicle treatment. The mice were euthanized after 4 weeks and measured colon lengths (FIG. 18B-C), in vivo gut permeability (FITC-dextran assay), serum ALT, AST, endotoxin, IL-6 and TNF-α (FIG. 18E).

C57BL/6 mice [1] = experiment: Acute (binge) alcohol ALD model; type: in vivo, mouse
Description: FIG. 15: UroA treatment reduces binge EtOH-induced ALD. (A) Acute alcohol model: Female wild type (C547BL/6) mice (n=6/group) were oral gavaged with alcohol (5 g/kg) at 0, 12 and 24 h. Mice were treated with Veh (0.25% CMC) or UroA (20 mg/kg) at 2, 14 and 26 h. Mice were euthanized at 32 h. (B) In vivo permeability was measured by determining serum levels of FITC-Dextran post 4 h oral gavage of FITC-dextran (C) Fecal albumin was measured using standard ELISA. (D-I) Indicated serum cytokines/markers levels were measured in serum using standard ELISA. (J) The levels of triglycerides (TGs) in liver were measured using ELISA methods. Error bars, ±SEM. Statistics were performed using 2 way ANOVA multiple comparisons. * p<0.05, ** p<0.01, *** p<0.001.
Treatment with UroA mitigates acute and chronic alcohol liver disease. To examine therapeutic efficacies of UroA in ALD, we adopted acute mouse model as developed by Gao B group (NIAAA) (BERTOLA et al., (2013) “Mouse model of chronic and binge ethanol feeding (the NIAAA model)” Nat Protoc. Vol. 8, No. 3, pp. 627-637). We tested therapeutic efficacies of UroA in this model.

AhR^−/− mice = experiment: Acute ALD model in AhR^−/− mice; type: in vivo, mouse; settings: 20 mg/kg at 2, 14 and 26 h
Description: FIG. 19: UroA treatment failed in AhR^−/− mice to protect against binge EtOH-induced ALD. C547BL/6 and AhR^−/− mice (n=4/group) were oral gavaged with alcohol (2.5 g/kg) at 0, 12 and 24 h. Mice were treated with Veh (0.25% CMC) or UroA (20 mg/kg) at 2, 14 and 26 h. Mice were euthanized at 32 h. The Fecal albumin was measured using standard ELISA. Serum endotoxin, TNF-α, ALT as well as liver ALT and TG levels using ELISA methods. Error bars, ±SEM. Statistics were performed using 2way ANOVA multiple comparisons. * p<0.05, ** p<0.01, *** p<0.001.
AhR has a role for UroA mediated protection in ALD model: To address the role of AhR expression for UroA mediated activities, we performed acute ALD models in C57BL/6J mice and AhR^−/− mice. In this experiment, mice (WT, AhR^−/− mice (n=4/group)) were treated with half the dose of EtOH (2.5 g/kg) at 0, 12 and 24 h followed by oral treatment Veh (0.25% CMC) or UroA (20 mg/kg) at 2, 14 and 26 h.

C57BL/6 mice [2] = experiment: Chronic low dose alcohol model; type: in vivo, mouse; settings: 20 mg/kg orally 2 h prior to EtOH 3 g/kg twice daily, 5 days
Description: C57BL/6 mice (10 wk old age) were used in low dose chronic ALD models. Mice were treated with EtOH (3 g/kg) daily twice orally for 5 days at 3 g/kg, UroA (20 mg/kg) was given orally 2 h prior to EtOH treatment. Mice were euthanized on day 6 and analyzed the indicated parameters. Error bars, ±SEM. Statistics were performed using 2 way ANOVA multiple comparisons. * p<0.05, ** p<0.01, *** p<0.001.
C57BL/6 mice (n=5 per group) were treated with EtOH (3 g/kg) twice daily orally for 5 days. UroA (20 mg/kg) was given orally 2 h prior to EtOH treatment. We evaluated gut permeability and inflammation parameters both in serum and liver (FIG. 17).

| Structure (SMILES) | reduction in Evan's blue dye leakage in back skin (Snail transgenic mice; Snail transgenic mice) | Collagen 1 mRNA expression in back skin (Snail transgenic mice; males and females, RT-qPCR) | deterioration of Ocln in the gut (C57BL/6N mice) | liver fat deposition (histopathology) (C57BL/6N mice) | liver inflammation (IL-6, TNF-α, MPO) and TG levels (C57BL/6N mice) | TJ protein (ZO-1) disruption at intestines (C57BL/6 mice [1]; 20 mg/kg) | TG accumulation in liver (C57BL/6 mice [1]; 20 mg/kg at 2, 14 and 26 h) | circulating serum ALT, AST levels (C57BL/6 mice [1]; 20 mg/kg at 2, 14 and 26 h) | systemic inflammation (serum IL-6, TNF-α, IL-1β, endotoxins) (C57BL/6 mice [1]; 20 mg/kg at 2, 14 and 26 h) | TG levels in AhR^−/− mice (AhR^−/− mice) | EtOH-induced gut leakage, serum endotoxins, TNF-α, ALT, liver ALT in AhR^−/− mice (AhR^−/− mice; EtOH 2.5 g/kg) | chronic low dose alcohol induced gut barrier dysfunction and inflammation (C57BL/6 mice [2]) |
| --- | --- | --- | --- | --- | --- | --- | --- | --- | --- | --- | --- | --- |
| Oc1ccc2c(c1)COc1cc(O)ccc1-2 [UAS03, 6H-benzo[c]chromene-3,8-diol] | more than 3 fold | reduced | protected from deterioration of Ocln | reduced liver fat deposition | down regulated liver inflammation and TG levels |  |  |  |  |  |  |  |
| O=c1oc2cc(O)ccc2c2ccc(O)cc12 [UroA, 3,8-dihydroxy-6H-dibenzo[b,d]pyran-6-one] |  |  |  |  |  | protects against TJ protein (ZO-1) disruption | reduced TG accumulation in liver | reduced | reduced | down regulated TG levels | did not appear to rescue | protects against |
